Patent US20050043300A1, “Piperazine derivatives” (priority 2003, published 2005)

target: interaction of gp120 with CD4 (Human immunodeficiency virus type 1 group M subtype B, UniProt P04578); test: gp120/soluble CD4 enzyme linked immunosorbent assay (ELISA); assay type: binding; conditions: soluble CD4 conjugated to horseradish peroxidase, absorbance at 492 nm, read-out: IC50, inhibition of interaction of gp120 with soluble CD4
Method: Maxisorp plates (Nunc) are coated with 2 μg/well of anti-gp120 antibody (D7324). 100 μl of gp120 (dilution pre-determined by titration) is added to each well and incubated for 90 minutes at room temperature. The sample is removed and the wells are washed with PBS (phosphate buffered saline)+0.01% TWEEN® (polyethylene glycol sorbitan monolaurate). 50 μl/well of compound is added followed by 50 μl (0.1 μg) of soluble CD4 conjugated to horseradish peroxidase (Autogen Bioclear). The plate is incubated for 90 minutes at room temperature before the wells are washed again. The substrate OPD (o-phenylenediamine, Sigma) is added at a concentration of 0.5 mg/ml and the plate incubated in the dark at room temperature for 3 minutes before 3M HCl is added to stop the reaction. Compounds that inhibit the interaction of gp120 with soluble CD4 will give rise to a reduced absorbance at 492 nm.

SMILES	IC50
CNC(=O)c1ccc(O[C@@H](C)C(=O)N2CCN(C(=O)c3ccccc3)C[C@H]2C)c(OC)c1 [Example 11]	1000 nM
Cc1n[nH]c2cccc(O[C@@H](C)C(=O)N3CCN(C(=O)c4ccccc4)C[C@H]3C)c12 [Example 12]	750 nM
C[C@H](Oc1cccc2ncccc12)C(=O)N1CCN(C(=O)c2ccccc2)C[C@H]1C [Example 1, (2S)-1-[(2R)-4-Benzoyl-2-methyl-piperazin-1-yl]-2-(quinolin-5-yloxy)-prooan-1-one]	920 nM

tested on: HIV-1 fusion; test: gp160 induced cell-cell fusion assay (HeLa P4 / CHO-Tat10 cells, β-galactosidase reporter); assay type: cell-based; conditions: Human immunodeficiency virus 1, HeLaP4, read-out: IC50 against HIV-1 fusion
Method: The gp160 induced cell-cell fusion assay uses a HeLa P4 cell line and a CHO-Tat10 cell line.
The HeLa P4 cell line expresses CCR5 and CD4 and has been transfected with HIV-1 LTR-β-Galactosidase. The media for this cell line is Dulbecco modified eagle's medium (D-MEM) (without L-glutamine) containing 10% foetal calf serum (FCS), 2 mM L-glutamine penicillin/streptomycin (Pen/Strep; 100 U/mL penicillin+[…] streptomycin), and 1 μg/ml puromycin.
The CHO cell line is a Tat (transcriptional trans activator)-expressing clone from a CHO JRR17.1 cell line that has been transfected with pTat puro plasmid. The media for this cell line is rich medium for mammalian cell culture originally developed at Roswell Park Memorial Institute RPMI1640 (without L-glutamine) containing 10% FCS, 2 mM L-glutamine, 0.5 mg/ml Hygromycin B and 12 μg/ml puromycin. The CHO JRR17.1 line expresses gp160 (JRFL) and is a clone that has been selected for its ability to fuse with a CCR5/CD4 expressing cell line.
Upon cell fusion, Tat present in the CHO cell is able to transactivate the HIV-1 long terminal repeat (LTR) present in the HeLa cell leading to the expression of the β-Galactosidase enzyme. This expression is then measured using a Fluor Ace™ β-Galactosidase reporter assay kit (Bio-Rad cat no. 170-3150). This kit is a quantitative fluorescent assay that determines the level of expression of β-galactosidase using 4-methylumbelliferul-galactopyranoside (MUG) as substrate. β-Galactosidase hydrolyses the fluorogenic substrate resulting in release of the fluorescent molecule 4-methylumbelliferone (4MU). Fluorescence of 4-methylumbelliferone is then measured on a fluorometer using an excitation wavelength of 360 nm and emission wavelength of 460 nm.
Compounds that inhibit fusion will give rise to a reduced signal and, following solubilisation in an appropriate solvent and dilution in culture medium, a dose-response curve for each compound can be used to calculate IC50 values.

SMILES	IC50
Cc1n[nH]c2cccc(O[C@@H](C)C(=O)N3CCN(C(=O)c4ccccc4)C[C@H]3C)c12 [Example 12]	15 nM
CC(Oc1ccccc1C(N)=O)C(=O)N1CCN(C(=O)c2ccccc2)C[C@H]1C (stereo partly drawn) [Example 44]	825 nM
CC(Oc1cccc2ccccc12)C(=O)N1CCN(C(=O)c2ccccc2)C[C@H]1C (stereo partly drawn) [Example 29]	134 nM
